By Ki is commonly meant the equilibrium dissociation constant of an inhibitor or competing ligand from its target. Higher therefore signals weaker binding. A word on the IC50: it is the concentration at which inhibition is half-maximal. Higher therefore signals weaker potency in that assay.

Our source for the Ki and IC50 values is BindingDB's records for doi:10.1016/j.bmcl.2005.05.101 (Glaxosmithkline, 2005).

Assay [1] has as its target T1, Dimer of Gag-Pol polyprotein [501-599,Q508K,L534I,L564I,C568A,C596A] (Human immunodeficiency virus 1, UniProt P03367, C568A/C596A/L534I/L564I/Q508K).
T1 construct: 501-599
As to the kind of experiment: Protease Inhibition Assay. The procedure: The Ki values were determined using fluorogenic substrate, 2-(aminobenzoyl)-Thr-Ile-Nle-Phe(p-NO2)-Gln-ArgNH2. A standard curve relating changes in fluorescent intensity to changes in concentration of product was used to convert fluorescent changes into molar velocities. The amount of cleavage was determined by HPLC.

Assay [2] deals with T1, Dimer of Gag-Pol polyprotein [501-599,Q508K,L534I,L564I,C568A,C596A]. Nature of the assay: Protease Inhibition Assay. Particulars: pH 6.8; 25 °C.

Consider `O=C(N[C@@H](Cc1ccccc1)[C@H](O)CN(OC1CCCC1)S(=O)(=O)c1ccc(O)cc1)O[C@H]1CO[C@H]2OCC[C@H]21` [N-alkoxysulfonamide analog entry n], for which the Ki in assay [1] is less than 5 pM.

On to `O=C(N[C@@H](Cc1ccccc1)[C@H](O)CN(OC1CCCCC1)S(=O)(=O)c1ccc2c(c1)OCO2)O[C@H]1CO[C@H]2OCC[C@H]21` [(3R,3aS,6aR)-hexahydrofuro[2,3-b]furan-3-yl N-[(2S,3R)-4-[2H-1,3-benzodioxole-5-(cyclohexyloxy)sulfonamido]-3-hydroxy-1-phenylbutan-2-yl]carbamate], for which the Ki in assay [1] was less than 5 pM.

The compound `O=C(N[C@@H](Cc1ccccc1)[C@H](O)CN(OC1CCCCC1)S(=O)(=O)c1ccc2c(c1)OCCO2)O[C@H]1CO[C@H]2OCC[C@H]21` [(3R,3aS,6aR)-hexahydrofuro[2,3-b]furan-3-yl N-[(2S,3R)-4-[(cyclohexyloxy)(2,3-dihydro-1,4-benzodioxine-6-)sulfonamido]-3-hydroxy-1-phenylbutan-2-yl]carbamate] gave a Ki in assay [1] of less than 5 pM.

The compound `Nc1ccc(S(=O)(=O)N(C[C@@H](O)[C@H](Cc2ccccc2)NC(=O)O[C@H]2CO[C@H]3OCC[C@H]32)OC2CCCC2)cc1` [(3R,3aS,6aR)-hexahydrofuro[2,3-b]furan-3-yl N-[(2S,3R)-4-[(4-aminobenzene)(cyclopentyloxy)sulfonamido]-3-hydroxy-1-phenylbutan-2-yl]carbamate] displayed a Ki in assay [1] of less than 5 pM.

As for `COc1ccc(S(=O)(=O)N(C[C@@H](O)[C@H](Cc2ccccc2)NC(=O)O[C@H]2CO[C@H]3OCC[C@H]32)OC2CCCCC2)cc1` [N-alkoxysulfonamide analog entry q], in assay [1], the Ki is less than 5 pM.

In turn, `COc1ccc(S(=O)(=O)N(C[C@@H](O)[C@H](Cc2ccccc2)NC(=O)[C@@H](NC(=O)c2ccc3ccccc3n2)C(N)=O)OC2CCCC2)cc1` [N-alkoxysulfonamide analog entry j] gave a Ki in assay [1] (pH 6.8, 25 °C) of less than 5 pM. Moreover, 24000 pM corresponded to half-maximal inhibition in assay [2] (IC50).

Take `O=C(N[C@@H](Cc1ccccc1)[C@H](O)CN(OC1CCCC1)S(=O)(=O)c1ccc2c(c1)OCO2)O[C@H]1CO[C@H]2OCC[C@H]21` [(3R,3aS,6aR)-hexahydrofuro[2,3-b]furan-3-yl N-[(2S,3R)-4-[2H-1,3-benzodioxole-5-(cyclopentyloxy)sulfonamido]-3-hydroxy-1-phenylbutan-2-yl]carbamate]: the Ki in assay [1] is less than 5 pM.

On to `COC(=O)N[C@H](C(=O)N[C@@H](Cc1ccccc1)[C@H](O)CN(OC1CCCC1)S(=O)(=O)c1ccc(OC)cc1)C(C)(C)C` [methyl N-[(1S)-1-{[(2S,3R)-4-[(cyclopentyloxy)(4-methoxybenzene)sulfonamido]-3-hydroxy-1-phenylbutan-2-yl]carbamoyl}-2,2-dimethylpropyl]carbamate], for which, in assay [2], inhibition was half-maximal at 203000 pM (IC50).

The compound `COc1ccc(S(=O)(=O)N(C[C@@H](O)[C@H](Cc2ccccc2)NC(=O)O[C@H]2CCOC2)OC2CCCC2)cc1` [(3S)-oxolan-3-yl N-[(2S,3R)-4-[(cyclopentyloxy)(4-methoxybenzene)sulfonamido]-3-hydroxy-1-phenylbutan-2-yl]carbamate] returned a Ki in assay [1] (pH 6.8, 25 °C) of 190 pM. The compound also yielded an IC50 in assay [2] of 738000 pM.

Turning to `COc1ccc(S(=O)(=O)N(C[C@@H](O)[C@H](Cc2ccccc2)NC(=O)O[C@H]2CO[C@H]3OCC[C@H]32)OC2CCCC2)cc1` [N-alkoxysulfonamide analog entry k], the Ki in assay [1] (pH 6.8, 25 °C) is less than 5 pM. Further, the IC50 in assay [2] is 6000 pM.

Regarding `O=C(N[C@@H](Cc1ccccc1)[C@H](O)CN(OC1CCCC1)S(=O)(=O)c1ccc2c(c1)OCCO2)O[C@H]1CO[C@H]2OCC[C@H]21` [N-alkoxysulfonamide analog entry p], the Ki in assay [1] was less than 5 pM.

In turn, `Nc1cccc(S(=O)(=O)N(C[C@@H](O)[C@H](Cc2ccccc2)NC(=O)O[C@H]2CO[C@H]3OCC[C@H]32)OC2CCCC2)c1` [(3R,3aS,6aR)-hexahydrofuro[2,3-b]furan-3-yl N-[(2S,3R)-4-[(3-aminobenzene)(cyclopentyloxy)sulfonamido]-3-hydroxy-1-phenylbutan-2-yl]carbamate] displayed a Ki in assay [1] of less than 5 pM.

Turning to `O=C(N[C@@H](Cc1ccccc1)[C@H](O)CN(OC1CCCCC1)S(=O)(=O)c1ccc(O)cc1)O[C@H]1CO[C@H]2OCC[C@H]21` [(3R,3aS,6aR)-hexahydrofuro[2,3-b]furan-3-yl N-[(2S,3R)-4-[(cyclohexyloxy)(4-hydroxybenzene)sulfonamido]-3-hydroxy-1-phenylbutan-2-yl]carbamate], the Ki in assay [1] is less than 5 pM.
